Source: patent US20040109825A1, “Topical patch preparation kit containing a delayed-type hypersensitivity inducer” (priority 2002, published 2004)

Key:
[1] = Stability of DNCB in a dissolved state; assay type: physicochemical; conditions: even more unstable at high temperatures
[2] = cited from earlier work

For `O=[N+]([O-])c1ccc(Cl)c([N+](=O)[O-])c1` [DNCB, 1-chloro-2,4-dinitrobenzene], which “stability in a dissolved state” value [1] is on record?
Its value is “unstable in a dissolved state”.

And the “adverse events of DNCB” value ([2]; reports to date)?
Its value is “have not been any reports to date of cases of life-threatening adverse events”.

What about the carcinogenicity ([2]; research conducted in the 1950s in the United States) of the same compound?
Its carcinogenicity is “not carcinogenic”.
